Data from PMC10786919, “Design-rules for stapled peptides with in vivo activity and their application to Mdm2/X antagonists” (Nature Communications, 2024).
pEC50: −log10 of the molar value. ≈ marks a conversion by molar mass, not a printed value. Like-named read-outs stand apart in the source and are kept apart here. Positions of bridges follow the written chain, without caps; N, C: chain ends. Non-standard residues stand in square brackets, D forms with d. Residues, ends and D or L forms follow the SMILES beside them. Lys(N3) = [N-]=[N+]=NCCCC[C@H](N)C(=O)O; R8 = C=CCCCCCC[C@@](C)(N)C(=O)O; Cba = N[C@@H](CC1CCC1)C(=O)O; S5 = C=CCCC[C@](C)(N)C(=O)O; βAla = NCCC(=O)O

Columns and labels:
[1] = Lactate dehydrogenase (LDH) release assay; type: cell-based
Procedure, shortened: (§1)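 HCT116 cells stably carrying a p53-responsive β-lactamase reporter, seeded at 8000 cells/well, exposed to compound with 0.5% final DMSO. LDH release read with the CytoTox-ONE membrane integrity kit. Values are geometric means of at least three biological replicates.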

HCT116 cells = assay: Lactate dehydrogenase (LDH) release assay; type: cell-based
Procedure, shortened: as §1

Ca Ski cell line = conditions: 72 h
Procedure, shortened: (§2)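 Compound dilution series (10 points, 3-fold, 10 mM top stock in DMSO) tested on overnight-plated Ca Ski cells in RPMI1640/10% FBS and on blasticidin-selected p53RE-bla HCT-116 cells in McCoy's 5A; read-out was CellTiter-Glo 2.0 luminescence after room-temperature equilibration.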

[2] = test system: CellSensor p53RE-bla HCT-116 Cell Line; conditions: 72 h
Procedure, shortened: as §2

in vitro = conditions: Nanoclick permeability assay EC50
Procedure, shortened: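 Azido-peptide permeability was read as loss of NanoBRET signal (donor 450 nm, acceptor 610 nm) after adding NanoBret618-azide at 10 μM final.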

physchem [3] = assay: physchem
[4] = Experimental LogD (partition coefficient); conditions: for logD: not stated, Partition Coeff LogD
[5] = Solubility assay (kinetic solubility, PBS pH 7); type: physicochemical; conditions: for solubility kinetic: pH 7, aqueous buffer, kinetic from dmso stock, read-out: Solubility
Procedure, shortened: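 Values derive from peak-area ratios of sample versus a 100 µM standard, scaled by that standard's concentration.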

physchem [6] = assay: physchem; remark: listed apart in the source

| SMILES | pEC50 ([1]; LDH: Cytotoxicity assay: EC50) | LDH: Cytotoxicity assay: % Effect (HCT116 cells) | pEC50 (Ca Ski cell line) | pEC50 [2] | cell entry EC50 (in vitro) | EPSA (physchem [3]) | logD [4] | pEC50 ([1]; LDH: Cytotoxicity assay EC50) | solubility kinetic ([5]; pH 7, PBS) | EPSA (physchem [6]) | pEC50 ([1]; LDH Cytotoxicity assay EC50) | Solubility [5] | Solubility ([5]; pH 7, PBS) | Partition Coeff LogD [4] |
| --- | --- | --- | --- | --- | --- | --- | --- | --- | --- | --- | --- | --- | --- | --- |
| CC[C@H](C)[C@H](NC(=O)CCNC(=O)[C@H](CCCCN=[N+]=[N-])NC(C)=O)C(=O)N[C@H](C(=O)N[C@@H](Cc1ccccc1)C(=O)N[C@]1(C)CCCCCCC=CCCC[C@@](C)(C(=O)N[C@@H](CO)C(=O)N[C@@H](C)C(=O)N[C@@H](C)C(N)=O)NC(=O)[C@H](CC2CCC2)NC(=O)[C@H](CCC(N)=O)NC(=O)[C@H]([C@@H](C)CC)NC(=O)[C@H](Cc2c[nH]c3ccccc23)NC(=O)[C@H](Cc2ccc(O)cc2)NC(=O)[C@H]([C@@H](C)CC)NC1=O)[C@@H](C)O [MP-491] (Ac-[Lys(N3)][βAla]ITF[R8]IYWIQ[Cba][S5]SAA-NH2; staple 6-13) | < 4.30 | -1.101% | < 4.30 | 5.88 | 0.237 µM | 196 A^2 | 4.61 |  |  |  |  |  |  |  |
| CC(=O)N[C@@H](CCCCN=[N+]=[N-])C(=O)NCCC(=O)N[C@@H](CO)C(=O)N[C@H](C(=O)N[C@@H](Cc1ccccc1)C(=O)N[C@]1(C)CCCCCCC=CCCC[C@@](C)(C(=O)N[C@@H](CO)C(=O)N[C@@H](C)C(=O)N[C@@H](C)C(N)=O)NC(=O)[C@H](CC2CCC2)NC(=O)[C@H](CCC(N)=O)NC(=O)[C@H](CO)NC(=O)[C@H](Cc2c[nH]c3ccccc23)NC(=O)[C@H](Cc2ccc(O)cc2)NC(=O)[C@H](CO)NC1=O)[C@@H](C)O [MP-5493] (Ac-[Lys(N3)][βAla]STF[R8]SYWSQ[Cba][S5]SAA-NH2; staple 6-13) | < 4.30 | 6.777% | < 4.30 | 5.44 | 0.0294 µM | 204 A^2 | 2.69 |  |  |  |  |  |  |  |
| CC(=O)N[C@@H](CCCCN=[N+]=[N-])C(=O)NCCC(=O)N[C@@H](CC(C)C)C(=O)N[C@H](C(=O)N[C@@H](Cc1ccccc1)C(=O)N[C@]1(C)CCCCCCC=CCCC[C@@](C)(C(=O)N[C@@H](CO)C(=O)N[C@@H](C)C(=O)N[C@@H](C)C(N)=O)NC(=O)[C@H](CC2CCC2)NC(=O)[C@H](Cc2c[nH]c3ccccc23)NC(=O)[C@H](C)NC(=O)[C@H](Cc2c[nH]c3ccccc23)NC(=O)[C@H](Cc2ccc(O)cc2)NC(=O)[C@H](CCC(=O)O)NC1=O)[C@@H](C)O [MP-187] (Ac-[Lys(N3)][βAla]LTF[R8]EYWAW[Cba][S5]SAA-NH2; staple 6-13) |  |  | < 4.30 | 5.14 | 0.247 µM |  | 3.14 | < 4.30 | 3.5 µM (≈ 7.1 µg/mL) | 242 A^2 |  |  |  |  |
| CC(=O)N[C@@H](CCCCN=[N+]=[N-])C(=O)NCCC(=O)N[C@@H](CC(C)C)C(=O)N[C@H](C(=O)N[C@@H](Cc1ccccc1)C(=O)N[C@]1(C)CCCCCCC=CCCC[C@@](C)(C(=O)N[C@@H](Cc2c[nH]c3ccccc23)C(=O)N[C@@H](C)C(=O)N[C@@H](C)C(N)=O)NC(=O)[C@H](CC2CCC2)NC(=O)[C@H](CCC(N)=O)NC(=O)[C@H](C)NC(=O)[C@H](Cc2c[nH]c3ccccc23)NC(=O)[C@H](Cc2ccc(O)cc2)NC(=O)[C@H](CCC(=O)O)NC1=O)[C@@H](C)O [MP-188] (Ac-[Lys(N3)][βAla]LTF[R8]EYWAQ[Cba][S5]WAA-NH2; staple 6-13) |  |  | 4.52 | 5.32 | 0.374 µM |  | 3.33 | < 4.30 | 50 µM (≈ 103 µg/mL) | 249 A^2 |  |  |  |  |
| CC(=O)N[C@@H](CCCCN=[N+]=[N-])C(=O)N[C@@H](CCCCN)C(=O)N[C@@H](CCCCN)C(=O)NCCC(=O)N[C@@H](C)C(=O)N[C@@H](C)C(=O)N[C@@H](Cc1ccccc1)C(=O)N[C@]1(C)CCCCCCC=CCCC[C@@](C)(C(=O)N[C@@H](C)C(=O)N[C@@H](C)C(=O)N[C@@H](C)C(N)=O)NC(=O)[C@H](CC2CCC2)NC(=O)[C@H](C)NC(=O)[C@H](C)NC(=O)[C@H](Cc2c[nH]c3ccccc23)NC(=O)[C@H](Cc2ccc(O)cc2)NC(=O)[C@H](C)NC1=O [MP-8967] (Ac-[Lys(N3)]KK[βAla]AAF[R8]AYWAA[Cba][S5]AAA-NH2; staple 8-15) |  |  | 4.87 | 4.92 | 0.575 µM |  | 2.75 | 4.78 |  | 223 A^2 | 4.77 | P.B. | Poorly Behaved |  |
| CC(=O)N[C@@H](CCCCN=[N+]=[N-])C(=O)NCCC(=O)N[C@@H](CC(C)C)C(=O)N[C@@H](CCCNC(=N)N)C(=O)N[C@@H](Cc1ccccc1)C(=O)N[C@]1(C)CCCCCCC=CCCC[C@@](C)(C(=O)N[C@@H](CO)C(=O)N[C@@H](C)C(=O)N[C@@H](C)C(N)=O)NC(=O)[C@H](CC2CCC2)NC(=O)[C@H](CCC(N)=O)NC(=O)[C@H](C)NC(=O)[C@H](Cc2c[nH]c3ccccc23)NC(=O)[C@H](Cc2ccc(O)cc2)NC(=O)[C@H](CCC(=O)O)NC1=O [MP-553] (Ac-[Lys(N3)][βAla]LRF[R8]EYWAQ[Cba][S5]SAA-NH2; staple 6-13) |  |  | < 4.30 | 5.17 | 0.174 µM |  | 2.86 | < 4.30 |  | 232 A^2 |  |  | Poorly Behaved |  |
| CC(=O)N[C@@H](CCCCN=[N+]=[N-])C(=O)NCCC(=O)N[C@@H](CCC(=O)O)C(=O)N[C@H](C(=O)N[C@@H](Cc1ccccc1)C(=O)N[C@]1(C)CCCCCCC=CCCC[C@@](C)(C(=O)N[C@@H](CO)C(=O)N[C@@H](C)C(=O)N[C@@H](C)C(N)=O)NC(=O)[C@H](CC2CCC2)NC(=O)[C@H](CCC(N)=O)NC(=O)[C@H](C)NC(=O)[C@H](Cc2c[nH]c3ccccc23)NC(=O)[C@H](Cc2ccc(O)cc2)NC(=O)[C@H](CCC(=O)O)NC1=O)[C@@H](C)O [MP-178] |  |  | < 4.30 | 5.56 | 0.292 µM |  | 2.47 | < 4.30 | 169 µM (≈ 336 µg/mL) | 254 A^2 |  |  |  |  |
| CC(=O)N[C@@H](CCCCN=[N+]=[N-])C(=O)NCCC(=O)N[C@@H](Cc1ccccc1)C(=O)N[C@H](C(=O)N[C@@H](Cc1ccccc1)C(=O)N[C@]1(C)CCCCCCC=CCCC[C@@](C)(C(=O)N[C@@H](CO)C(=O)N[C@@H](C)C(=O)N[C@@H](C)C(N)=O)NC(=O)[C@H](CC2CCC2)NC(=O)[C@H](CCC(N)=O)NC(=O)[C@H](Cc2ccccc2)NC(=O)[C@H](Cc2c[nH]c3ccccc23)NC(=O)[C@H](Cc2ccc(O)cc2)NC(=O)[C@H](Cc2ccccc2)NC1=O)[C@@H](C)O [MP-492] (Ac-[Lys(N3)][βAla]FTF[R8]FYWFQ[Cba][S5]SAA-NH2; staple 6-13) | < 4.30 |  | < 4.30 | 5.60 | 0.16 µM | 211 A^2 | 4.21 |  | 3 µM (≈ 6.3 µg/mL) |  |  |  |  |  |
| CC(=O)N[C@@H](CCCCN=[N+]=[N-])C(=O)NCCC(=O)N[C@@H](Cc1ccc(O)cc1)C(=O)N[C@H](C(=O)N[C@@H](Cc1ccccc1)C(=O)N[C@]1(C)CCCCCCC=CCCC[C@@](C)(C(=O)N[C@@H](CO)C(=O)N[C@@H](C)C(=O)N[C@@H](C)C(N)=O)NC(=O)[C@H](CC2CCC2)NC(=O)[C@H](CCC(N)=O)NC(=O)[C@H](Cc2ccc(O)cc2)NC(=O)[C@H](Cc2c[nH]c3ccccc23)NC(=O)[C@H](Cc2ccc(O)cc2)NC(=O)[C@H](Cc2ccc(O)cc2)NC1=O)[C@@H](C)O [MP-694] (Ac-[Lys(N3)][βAla]YTF[R8]YYWYQ[Cba][S5]SAA-NH2; staple 6-13) | < 4.30 |  | < 4.30 | 5.52 | 0.453 µM | 227 A^2 | 3.22 |  | 9 µM (≈ 19.3 µg/mL) |  |  |  |  |  |
| CC(=O)N[C@@H](CCCCN=[N+]=[N-])C(=O)NCCC(=O)N[C@H](C(=O)N[C@H](C(=O)N[C@@H](Cc1ccccc1)C(=O)N[C@]1(C)CCCCCCC=CCCC[C@@](C)(C(=O)N[C@@H](CO)C(=O)N[C@@H](C)C(=O)N[C@@H](C)C(N)=O)NC(=O)[C@H](CC2CCC2)NC(=O)[C@H](CCC(N)=O)NC(=O)[C@H](C(C)C)NC(=O)[C@H](Cc2c[nH]c3ccccc23)NC(=O)[C@H](Cc2ccc(O)cc2)NC(=O)[C@H](C(C)C)NC1=O)[C@@H](C)O)C(C)C [MP-490] (Ac-[Lys(N3)][βAla]VTF[R8]VYWVQ[Cba][S5]SAA-NH2; staple 6-13) | < 4.30 |  | < 4.30 | 6.09 | 1.37 µM | 194 A^2 | 4 |  | 3 µM (≈ 5.86 µg/mL) |  |  |  |  |  |
| CC(=O)N[C@@H](CCCCN=[N+]=[N-])C(=O)NCCC(=O)N[C@@H](CC(C)C)C(=O)N[C@H](C(=O)N[C@@H](Cc1ccccc1)C(=O)N[C@]1(C)CCCCCCC=CCCC[C@@](C)(C(=O)N[C@@H](CCCNC(=N)N)C(=O)N[C@@H](C)C(=O)N[C@@H](C)C(N)=O)NC(=O)[C@H](CC2CCC2)NC(=O)[C@H](CCC(N)=O)NC(=O)[C@H](C)NC(=O)[C@H](Cc2c[nH]c3ccccc23)NC(=O)[C@H](Cc2ccc(O)cc2)NC(=O)[C@H](CCC(=O)O)NC1=O)[C@@H](C)O [MP-557] (Ac-[Lys(N3)][βAla]LTF[R8]EYWAQ[Cba][S5]RAA-NH2; staple 6-13) |  |  | < 4.30 | 5.69 | 0.136 µM |  |  | < 4.30 |  | 219 A^2 |  |  | Poorly Behaved | Poorly Behaved |
